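Cultured in 96-well plates, cells were exposed to test compound for 48 hours across five concentrations. TGI denotes the concentration required for complete inhibition of growth.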
Experiments:
Experiment in all cases: NCI anticancer screen, dose series, 48 h
OVCAR-3 ovarian = test system: OVCAR-3 ovarian
HCC-2998 colon = test system: HCC-2998 colon
NCI-H522 lung = test system: NCI-H522 lung
SK-OV-3 ovarian = test system: SK-OV-3 ovarian
K-562 leukemia = test system: K-562 leukemia
MCF7 breast = test system: MCF7 breast
M14 melanoma = test system: M14 melanoma
MOLT-4 leukemia = test system: MOLT-4 leukemia
SF-539 CNS = test system: SF-539 CNS
T-47D breast = test system: T-47D breast
IGROV1 ovarian = test system: IGROV1 ovarian
MALME-3M melanoma = test system: MALME-3M melanoma
CAKI-1 renal = test system: CAKI-1 renal
MDA-MB-435 = test system: MDA-MB-435
MDA-MB-231 breast = test system: MDA-MB-231 breast
HOP-62 NSCLC = test system: HOP-62 NSCLC
HT29 colon = test system: HT29 colon
SN12C renal = test system: SN12C renal
SW-620 colon = test system: SW-620 colon
KM12 colon = test system: KM12 colon
NCI-H23 lung = test system: NCI-H23 lung
HOP-92 NSCLC = test system: HOP-92 NSCLC
786-0 renal = test system: 786-0 renal
NCI/ADR-RES ovarian = test system: NCI/ADR-RES ovarian
HCT-116 colon = test system: HCT-116 colon
A498 renal = test system: A498 renal
SR leukemia = test system: SR leukemia
HCT-15 colon = test system: HCT-15 colon
TK-10 renal = test system: TK-10 renal
SK-MEL-28 melanoma = test system: SK-MEL-28 melanoma
NCI-H460 lung = test system: NCI-H460 lung
UACC-62 melanoma = test system: UACC-62 melanoma
OVCAR-4 ovarian = test system: OVCAR-4 ovarian
LOX IMVI melanoma = test system: LOX IMVI melanoma
SNB-75 CNS = test system: SNB-75 CNS
CCRF-CEM leukemia = test system: CCRF-CEM leukemia
COLO 205 colon = test system: COLO 205 colon
RXF 393 renal = test system: RXF 393 renal
NCI-H226 lung = test system: NCI-H226 lung
MDA-N = test system: MDA-N
SK-MEL-2 melanoma = test system: SK-MEL-2 melanoma
ACHN renal = test system: ACHN renal
OVCAR-5 ovarian = test system: OVCAR-5 ovarian
A549 NSCLC = test system: A549 NSCLC
SNB-19 CNS = test system: SNB-19 CNS
SF-295 CNS = test system: SF-295 CNS
EKVX NSCLC = test system: EKVX NSCLC
UACC-257 melanoma = test system: UACC-257 melanoma
SF-268 CNS = test system: SF-268 CNS
U251 CNS = test system: U251 CNS
PC-3 prostate = test system: PC-3 prostate
HL-60(TB) leukemia = test system: HL-60(TB) leukemia
DU-145 prostate = test system: DU-145 prostate
UO-31 renal = test system: UO-31 renal
OVCAR-8 ovarian = test system: OVCAR-8 ovarian
SK-MEL-5 melanoma = test system: SK-MEL-5 melanoma
HS 578T breast = test system: HS 578T breast
RPMI-8226 leukemia = test system: RPMI-8226 leukemia

Measured: TGI

O=C(O)CCC(NC(=O)c1ccc(Oc2nc3ccccc3nc2-c2ccccc2)cc1)C(=O)O (stereo unspecified)
> 100 µM: OVCAR-3 ovarian | HCC-2998 colon | NCI-H522 lung | SK-OV-3 ovarian | K-562 leukemia | MCF7 breast | M14 melanoma | MOLT-4 leukemia | SF-539 CNS | T-47D breast | IGROV1 ovarian | MALME-3M melanoma | CAKI-1 renal | MDA-MB-435 | MDA-MB-231 breast | HOP-62 NSCLC | HT29 colon | SN12C renal | SW-620 colon | KM12 colon | NCI-H23 lung | HOP-92 NSCLC | 786-0 renal | NCI/ADR-RES ovarian | HCT-116 colon | A498 renal | SR leukemia | HCT-15 colon | TK-10 renal | SK-MEL-28 melanoma | NCI-H460 lung | UACC-62 melanoma | OVCAR-4 ovarian | LOX IMVI melanoma | SNB-75 CNS | CCRF-CEM leukemia | COLO 205 colon | RXF 393 renal | NCI-H226 lung | MDA-N | SK-MEL-2 melanoma | ACHN renal | OVCAR-5 ovarian | A549 NSCLC | SNB-19 CNS | SF-295 CNS | EKVX NSCLC | UACC-257 melanoma | SF-268 CNS | U251 CNS | PC-3 prostate | HL-60(TB) leukemia | DU-145 prostate | UO-31 renal | OVCAR-8 ovarian

COc1ccc(NC(=O)NNS(=O)(=O)c2ccc(C)cc2)cc1
> 100 µM: HCC-2998 colon | NCI-H522 lung | SK-OV-3 ovarian | K-562 leukemia | MCF7 breast | M14 melanoma | MOLT-4 leukemia | SF-539 CNS | T-47D breast | IGROV1 ovarian | MALME-3M melanoma | CAKI-1 renal | SK-MEL-5 melanoma | MDA-MB-435 | MDA-MB-231 breast | HOP-62 NSCLC | HT29 colon | SN12C renal | SW-620 colon | KM12 colon | NCI-H23 lung | HOP-92 NSCLC | 786-0 renal | HS 578T breast | NCI/ADR-RES ovarian | HCT-116 colon | A498 renal | SR leukemia | HCT-15 colon | TK-10 renal | SK-MEL-28 melanoma | NCI-H460 lung | UACC-62 melanoma | OVCAR-4 ovarian | SNB-75 CNS | CCRF-CEM leukemia | COLO 205 colon | RXF 393 renal | RPMI-8226 leukemia | NCI-H226 lung | MDA-N | SK-MEL-2 melanoma | ACHN renal | OVCAR-5 ovarian | A549 NSCLC | SNB-19 CNS | SF-295 CNS | EKVX NSCLC | UACC-257 melanoma | SF-268 CNS | U251 CNS | PC-3 prostate | HL-60(TB) leukemia | DU-145 prostate | UO-31 renal | OVCAR-8 ovarian
